Measured values reported in patent publication US7868026B2, “Therapeutic compounds” (Pfizer Inc., priority 2005, dated 2011).
Read-outs that look alike come from different tables or passages of the source.

What was measured:
Format in all cases: biochemical
CYP3A4 [1] = biological target: T1, CYP3A4 (Homo sapiens, UniProt P08684); assay: Determination of IC50 against CYP3A4 by measurement of inhibition of midazolam metabolism (human liver microsomes, 1-hydroxymidazolam by LC-MS/MS); design: 0.1 mg/mL human liver microsomes; settings: 2 μM midazolam, 0.1 mg/mL human liver microsomes
Summary of the method: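 Human liver microsomes (0.1 mg/mL) incubated 8 min with 2 μM midazolam and 1 mM NADPH in 100 mM potassium phosphate, pH 7.4. 1-Hydroxymidazolam quantified by LC-MS/MS (MRM) as peak area ratio to internal standard against a metabolite standard curve.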

CYP3A4 [2] = biological target: T1, CYP3A4; assay: Determination of IC50 against CYP3A4 by measurement of inhibition of testosterone metabolism (human liver microsomes, 6-β-OH-testosterone by LC-MS/MS); design: 0.1 mg/mL human liver microsomes; settings: read-out: IC50 (Testo.)
Summary of the method: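 6-β-OH-testosterone formation was read by LC-MS/MS (MRM, internal standard, standard curve) after eight minutes. Reaction contained testosterone 25 μM, NADPH 1 mM and microsomal protein 0.1 mg/mL in pH 7.4 potassium phosphate (100 mM).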

CYP3A4 [3] = biological target: T1, CYP3A4; assay: Determination of compound Kiapp against recombinant CYP3A4 enzyme (BFC fluorescent substrate)
Summary of the method: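 Kiapp derived from initial velocities over the first 5 min of BFC (5 uM) oxidation, using Morrison's tight-binding equation for non-partial and Szedlacsek's for partial inhibitors. Inhibitor first pre-incubated ≥30 min with CYP3A4 (5.5 or 8 nM, ±b5) in pH 7.0 phosphate/TCEP/2% DMF at room temperature; 200 uM NADPH initiated.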

[4] = Baculo. enzyme preparation, read-out: Kiapp (BFC, Baculo.)
[5] = Super. enzyme preparation, read-out: Kiapp (BFC, Super.)

T1 sequence (P08684 whole entry): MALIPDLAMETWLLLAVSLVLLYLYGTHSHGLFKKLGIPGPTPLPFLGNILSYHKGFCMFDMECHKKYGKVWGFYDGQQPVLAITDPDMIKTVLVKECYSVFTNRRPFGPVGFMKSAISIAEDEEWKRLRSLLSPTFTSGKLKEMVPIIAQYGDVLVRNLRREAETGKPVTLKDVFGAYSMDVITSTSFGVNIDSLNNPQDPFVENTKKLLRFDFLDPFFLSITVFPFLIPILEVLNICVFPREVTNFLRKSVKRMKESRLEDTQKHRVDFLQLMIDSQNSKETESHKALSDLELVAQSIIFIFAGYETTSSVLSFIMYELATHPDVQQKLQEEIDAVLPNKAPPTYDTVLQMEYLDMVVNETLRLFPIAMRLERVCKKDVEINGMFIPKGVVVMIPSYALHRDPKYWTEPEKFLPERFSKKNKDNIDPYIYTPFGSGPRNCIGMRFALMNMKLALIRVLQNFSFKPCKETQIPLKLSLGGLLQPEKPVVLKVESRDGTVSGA

| Compound | IC50 (CYP3A4 [1]) [nM] | IC50 (CYP3A4 [2]) [nM] | Ki (CYP3A4 [3]; [4]) [nM] | Ki (CYP3A4 [3]; [5]) [nM] |
| --- | --- | --- | --- | --- |
| CCCCNC(=O)c1ccccc1S(=O)(=O)Nc1cnccc1C [Example 260, N-butyl-2-{[(4-methylpyridin-3-yl)amino]sulfonyl}benzamide] | 47 | 65 | 485 | 71.5 |
| COCCNC(=O)c1ccccc1S(=O)(=O)Nc1cccnc1 [Example 261, N-(2-methoxyethyl)-2-[(pyridin-3-ylamino)sulfonyl]benzamide] | 256 | 627 | > 1000 | 453 |
| COc1cncc(NS(=O)(=O)c2ccc(OC3CCNCC3)cc2C(=O)NCc2ccc(F)cc2)c1 [Example 264, N-(4-fluorobenzyl)-2-{[(5-methoxypyridin-3-yl)amino]sulfonyl}-5-(piperidin-4-yloxy)benzamide] | 26 | 58 | 34.7 | 9.88 |
| COc1cncc(NS(=O)(=O)c2ccc(OCCN3CCOCC3)cc2C(=O)NCc2ccc(F)cc2)c1 [Example 265, N-(4-fluorobenzyl)-2-{[(5-methoxypyridin-3-yl)amino]sulfonyl}-5-(2-morpholin-4-ylethoxy)benzamide] | 23 | 41 | 29.6 | 12.6 |
| COc1cncc(NS(=O)(=O)c2ccc(OCCCN(C)C)cc2C(=O)NCc2ccc(F)cc2)c1 [Example 266, 5-[3-(dimethylamino)propoxy]-N-(4-fluorobenzyl)-2-{[(5-methoxypyridin-3-yl)amino]sulfonyl}benzamide] | 54 | 109 | 145 | 26.8 |
| COc1cncc(NS(=O)(=O)c2ccc(F)cc2C(=O)N2CCCC(C)C2)c1 (stereo not drawn) [Example 267, 4-fluoro-N-(5-methoxypyridin-3-yl)-2-[(3-methylpiperidin-1-yl)carbonyl]benzenesulfonamide] | 120 | 216 | 270 | 43.2 |
| CCCCCN(C)C(=O)c1cc(Cl)ccc1S(=O)(=O)Nc1cncc(OC)c1 [Example 268, 5-chloro-2-{[(5-methoxypyridin-3-yl)amino]sulfonyl}-N-methyl-N-pentylbenzamide] | 44 | 63 | 110 | 19.4 |
| CCOc1ccncc1NS(=O)(=O)c1ccccc1C(=O)NC(C)C1CC1 (stereo not drawn) [Example 270, N-(1-cyclopropylethyl)-2-{[(4-ethoxypyridin-3-yl)amino]sulfonyl}benzamide] | 22 | 52 | 352 | 39.8 |
| CCCCN(C)C(=O)c1ccccc1S(=O)(=O)Nc1cnccc1OCC [Example 274, N-butyl-2-{[(4-ethoxypyridin-3-yl)amino]sulfonyl}-N-methylbenzamide] | 25 | 46 | 70.1 | 8.85 |
| COc1ccncc1NS(=O)(=O)c1ccccc1C(=O)NC(C)C1CC1 (stereo not drawn) [Example 276, N-(1-cyclopropylethyl)-2-{[(4-methoxypyridin-3-yl)amino]sulfonyl}benzamide] | 71 | 134 | 563 | 62.9 |
| COc1ccncc1NS(=O)(=O)c1ccccc1C(=O)NCCC(C)C [Example 277, 2-{[(4-methoxypyridin-3-yl)amino]sulfonyl}-N-(3-methylbutyl)benzamide] | 53 | 65 | 459 | 47.9 |
| CCCCCN(C)C(=O)c1ccccc1S(=O)(=O)Nc1cnccc1OC [Example 278, 2-{[(4-methoxypyridin-3-yl)amino]sulfonyl}-N-methyl-N-pentylbenzamide] | 31 | 66 | 131 | 11.9 |
| COc1ccncc1NS(=O)(=O)c1ccccc1C(=O)N(C)C(C)C [Example 279, N-isopropyl-2-{[(4-methoxypyridin-3-yl)amino]sulfonyl}-N-methylbenzamide] | 123 | 337 | > 1000 | 95.2 |
| CCCCN(C)C(=O)c1ccccc1S(=O)(=O)Nc1cnccc1OC [Example 280, N-butyl-2-{[(4-methoxypyridin-3-yl)amino]sulfonyl}-N-methylbenzamide] | 39 | 95 | 400 | 52.5 |
| Cc1cncc(NS(=O)(=O)c2ccccc2C(=O)N(C)C(C)C)c1 [Example 281, N-isopropyl-N-methyl-2-{[(5-methylpyridin-3-yl)amino]sulfonyl}benzamide] | 31 | 65 | 468 | 42.6 |
| COc1cncc(NS(=O)(=O)c2ccccc2C(=O)N(C)C(C)C)c1 [Example 282, N-isopropyl-2-{[(5-methoxypyridin-3-yl)amino]sulfonyl}-N-methylbenzamide] | 49 | 62 | 330 | 57.7 |
| CCOc1cncc(NS(=O)(=O)c2ccccc2C(=O)NC2CCCC2)c1 [Example 287, N-cyclopentyl-2-{[(5-ethoxypyridin-3-yl)amino]sulfonyl}benzamide] | 43 | 99 | 216 | 47.7 |

The next compounds have a lower IC50 (CYP3A4 [1]) than those just listed; values first:

| IC50 (CYP3A4 [1]) [nM] | IC50 (CYP3A4 [2]) [nM] | Ki (CYP3A4 [3]; [4]) [nM] | Ki (CYP3A4 [3]; [5]) [nM] | Compound |
| --- | --- | --- | --- | --- |
| 19 | 28 | 26 | 7.24 | COc1cncc(NS(=O)(=O)c2ccccc2C(=O)N(C)Cc2ccc(F)c(F)c2)c1 [Example 285, N-(3,4-difluorobenzyl)-2-{[(5-methoxypyridin-3-yl)amino]sulfonyl}-N-methylbenzamide] |
| 18 | 21 | 118 | 17.2 | CCOc1ccncc1NS(=O)(=O)c1ccccc1C(=O)NCCC(C)C [Example 271, 2-{[(4-ethoxypyridin-3-yl)amino]sulfonyl}-N-(3-methylbutyl)benzamide] |
| 15 | 15 | 135 | 12.5 | Cc1ccncc1NS(=O)(=O)c1ccccc1C(=O)NCc1ccc(F)c(F)c1 [Example 259, N-(3,4-difluorobenzyl)-2-{[(4-methylpyridin-3-yl)amino]sulfonyl}benzamide] |
| 15 | 49 | 99.8 | 14.2 | CN(Cc1ccc(F)c(F)c1)C(=O)c1ccccc1S(=O)(=O)Nc1cccnc1 [Example 284, N-(3,4-difluorobenzyl)-N-methyl-2-[(pyridin-3-ylamino)sulfonyl]benzamide] |
| 15 | 27 | 5.9 | 4.97 | CCOc1cncc(NS(=O)(=O)c2ccccc2C(=O)N(C)Cc2ccc(F)c(F)c2)c1 [Example 289, N-(3,4-difluorobenzyl)-2-{[(5-ethoxypyridin-3-yl)amino]sulfonyl}-N-methylbenzamide] |
| 12 | 19 | 67.3 | 5.68 | CCCCCN(C)C(=O)c1ccccc1S(=O)(=O)Nc1cnccc1OCC [Example 272, 2-{[(4-ethoxypyridin-3-yl)amino]sulfonyl}-N-methyl-N-pentylbenzamide] |
| 12 | 18 | 2.2 | 3.08 | CCOc1cncc(NS(=O)(=O)c2ccccc2C(=O)NCc2ccc(F)c(C(F)(F)F)c2)c1 [Example 288, 2-{[(5-ethoxypyridin-3-yl)amino]sulfonyl}-N-[4-fluoro-3-(trifluoromethyl)benzyl]benzamide] |
| 9 | 11 | 54.7 | 5.4 | COc1cncc(NS(=O)(=O)c2ccccc2C(=O)NCCc2ccccc2OC)c1 [Example 263, N-[2-(2-methoxyphenyl)ethyl]-2-{[(5-methoxypyridin-3-yl)amino]sulfonyl}benzamide] |
| 9 | 13 | 18.1 | 3.31 | CCOc1ccncc1NS(=O)(=O)c1ccccc1C(=O)NCCc1ccccc1C [Example 269, 2-{[(4-ethoxypyridin-3-yl)amino]sulfonyl}-N-[2-(2-methylphenyl)ethyl]benzamide] |
| 9 | 7 | 42.9 | 3.76 | COc1ccncc1NS(=O)(=O)c1ccccc1C(=O)NCCc1ccccc1C [Example 275, 2-{[(4-methoxypyridin-3-yl)amino]sulfonyl}-N-[2-(2-methylphenyl)ethyl]benzamide] |
| 7.67 | 9.5 | 27.2 | 4.06 | Cc1cncc(NS(=O)(=O)c2ccccc2C(=O)N(C)Cc2ccc(F)c(F)c2)c1 [Example 286, N-(3,4-difluorobenzyl)-N-methyl-2-{[(5-methylpyridin-3-yl)amino]sulfonyl}benzamide] |
| 6 | 11 | 50.9 | 6.49 | COc1cncc(NS(=O)(=O)c2ccccc2C(=O)NCCc2ccccc2F)c1 [Example 258, N-[2-(2-fluorophenyl)ethyl]-2-{[(5-methoxypyridin-3-yl)amino]sulfonyl}benzamide] |
| 5 | 7.5 | 10.2 | 1.63 | COc1cncc(NS(=O)(=O)c2ccccc2C(=O)NCc2ccc(F)c(Cl)c2)c1 [Example 262, N-(3-chloro-4-fluorobenzyl)-2-{[(5-methoxypyridin-3-yl)amino]sulfonyl}benzamide] |
